Activity calls are given as the source filed them. No cut-off for these calls is given here.
How the values were obtained:
[1] = molecular target: T1, Muscarinic acetylcholine receptor M4 (Homo sapiens) (UniProt P08173); assay: Partial agonist activity at human M4 receptor co-expressed with Galpha16 in CHO cells assessed as calcium mobilization at 3 uM after 60 mins by FLIPR assay; format: functional, cell-based
T1 sequence (whole entry): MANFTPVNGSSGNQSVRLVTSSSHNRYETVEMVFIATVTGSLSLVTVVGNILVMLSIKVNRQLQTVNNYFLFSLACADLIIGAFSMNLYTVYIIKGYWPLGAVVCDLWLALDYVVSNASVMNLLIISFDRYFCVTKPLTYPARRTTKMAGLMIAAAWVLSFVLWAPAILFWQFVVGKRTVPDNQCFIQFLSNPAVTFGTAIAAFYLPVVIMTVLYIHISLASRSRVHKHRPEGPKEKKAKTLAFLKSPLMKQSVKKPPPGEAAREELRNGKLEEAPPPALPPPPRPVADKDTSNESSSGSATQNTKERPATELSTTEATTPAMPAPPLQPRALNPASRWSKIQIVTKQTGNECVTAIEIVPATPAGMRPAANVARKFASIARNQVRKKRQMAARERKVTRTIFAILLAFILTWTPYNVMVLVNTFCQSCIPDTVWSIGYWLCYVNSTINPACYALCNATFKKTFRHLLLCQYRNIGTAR

[2] = molecular target: Muscarinic acetylcholine receptor M3 (Homo sapiens) (UniProt P20309); assay: Partial agonist activity at human M3 receptor in CHO cells assessed as calcium mobilization at 3 uM after 60 mins by FLIPR assay; format: functional, cell-based
[3] = molecular target: T2, Muscarinic acetylcholine receptor M1 (Homo sapiens) (UniProt P11229); assay: Partial agonist activity at human M1 receptor in CHO cells assessed as calcium mobilization at 3 uM after 60 mins by FLIPR assay; format: functional, cell-based
T2 sequence (whole entry): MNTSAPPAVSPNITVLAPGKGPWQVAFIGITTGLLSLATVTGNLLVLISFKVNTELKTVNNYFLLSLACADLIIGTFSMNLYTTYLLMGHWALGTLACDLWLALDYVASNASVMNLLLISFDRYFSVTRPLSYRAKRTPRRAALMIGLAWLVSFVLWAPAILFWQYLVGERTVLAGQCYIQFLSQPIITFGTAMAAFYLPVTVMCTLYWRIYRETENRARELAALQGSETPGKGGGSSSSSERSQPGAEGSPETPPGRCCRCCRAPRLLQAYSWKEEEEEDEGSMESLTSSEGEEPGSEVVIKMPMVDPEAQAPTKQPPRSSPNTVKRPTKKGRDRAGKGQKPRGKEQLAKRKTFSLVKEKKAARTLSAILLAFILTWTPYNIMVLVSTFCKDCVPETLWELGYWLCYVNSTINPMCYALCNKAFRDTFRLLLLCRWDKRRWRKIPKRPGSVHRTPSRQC

[4] = molecular target: T3, Muscarinic acetylcholine receptor M5 (Homo sapiens) (UniProt P08912); assay: Partial agonist activity at human M5 receptor in CHO cells assessed as calcium mobilization at 3 uM after 60 mins by FLIPR assay; format: functional, cell-based
T3 sequence (whole entry): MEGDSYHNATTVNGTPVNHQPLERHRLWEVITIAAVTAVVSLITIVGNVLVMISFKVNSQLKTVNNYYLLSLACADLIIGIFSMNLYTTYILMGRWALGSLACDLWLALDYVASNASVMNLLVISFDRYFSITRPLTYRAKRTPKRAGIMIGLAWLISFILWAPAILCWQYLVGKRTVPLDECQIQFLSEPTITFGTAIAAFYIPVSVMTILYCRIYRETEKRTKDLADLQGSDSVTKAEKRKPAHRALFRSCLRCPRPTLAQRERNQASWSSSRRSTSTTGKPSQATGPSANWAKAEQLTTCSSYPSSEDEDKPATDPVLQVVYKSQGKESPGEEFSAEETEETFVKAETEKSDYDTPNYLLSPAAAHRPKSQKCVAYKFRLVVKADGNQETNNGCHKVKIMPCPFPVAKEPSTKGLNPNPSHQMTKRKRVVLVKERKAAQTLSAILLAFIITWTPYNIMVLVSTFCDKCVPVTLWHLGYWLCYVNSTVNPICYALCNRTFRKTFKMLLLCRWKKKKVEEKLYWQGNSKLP

[5] = molecular target: T4, Muscarinic acetylcholine receptor M4 (Homo sapiens, UniProt P08173); assay: (§1) Partial agonist activity at human M4 receptor co-expressed with Galpha16 in CHO cells assessed as calcium mobilization after 60 mins by FLIPR assay; format: functional, cell-based
T4 sequence (P08173 whole entry): T1 sequence (whole entry)

[6] = molecular target: T1, Muscarinic acetylcholine receptor M4 (Homo sapiens); assay: as §1; format: functional, cell-based
[7] = molecular target: Voltage-gated inwardly rectifying potassium channel KCNH2 (Homo sapiens, UniProt Q12809); assay: Inhibition of human ERG assessed as decrease in tail current amplitude measured after 5 mins by whole cell patch clamp technique
[8] = molecular target: T5, Muscarinic acetylcholine receptor M2 (Homo sapiens) (UniProt P08172); assay: Partial agonist activity at human M2 receptor co-expressed with Galpha16 in CHO cells assessed as calcium mobilization at 3 uM after 60 mins by FLIPR assay; format: functional, cell-based
T5 sequence (whole entry): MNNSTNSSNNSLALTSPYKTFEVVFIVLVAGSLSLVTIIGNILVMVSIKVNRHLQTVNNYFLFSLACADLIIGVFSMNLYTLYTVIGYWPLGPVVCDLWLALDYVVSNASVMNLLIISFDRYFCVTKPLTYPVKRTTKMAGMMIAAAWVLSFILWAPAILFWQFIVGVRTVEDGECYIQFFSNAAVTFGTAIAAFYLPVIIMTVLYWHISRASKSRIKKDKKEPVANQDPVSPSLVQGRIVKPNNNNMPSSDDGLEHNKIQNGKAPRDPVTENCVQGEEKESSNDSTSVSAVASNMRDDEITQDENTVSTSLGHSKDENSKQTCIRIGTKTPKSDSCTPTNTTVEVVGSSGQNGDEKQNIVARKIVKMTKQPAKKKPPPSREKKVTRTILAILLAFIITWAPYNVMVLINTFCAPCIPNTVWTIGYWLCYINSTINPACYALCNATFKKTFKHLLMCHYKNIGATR

[9] = molecular target: Muscarinic acetylcholine receptor M3 (Homo sapiens) (UniProt P20309); assay: Agonist activity at M3 receptor (unknown origin) at 3 uM by calcium mobilization assay; format: functional
[10] = molecular target: T3, Muscarinic acetylcholine receptor M5 (Homo sapiens); assay: Agonist activity at M5 receptor (unknown origin) at 3 uM by calcium mobilization assay; format: functional
[11] = molecular target: T1, Muscarinic acetylcholine receptor M4 (Homo sapiens); assay: Agonist activity at M4 receptor (unknown origin) at 3 uM by calcium mobilization assay; format: functional
[12] = molecular target: T5, Muscarinic acetylcholine receptor M2 (Homo sapiens); assay: Agonist activity at M2 receptor (unknown origin) at 3 uM by calcium mobilization assay; format: functional
[13] = molecular target: T2, Muscarinic acetylcholine receptor M1 (Homo sapiens); assay: Agonist activity at M1 receptor (unknown origin) at 3 uM by calcium mobilization assay; format: functional
[14] = test system: Mus musculus; assay: Induction of seizures in ddY mouse at 300 mg/kg, sc measured for 45 mins after drug injection; format: organism-based; parameters: dose 300 mg/kg, route subcutaneous; details: in vivo, 0.75 h
[15] = species: Rattus norvegicus; details: Sprague-Dawley, 0.1 to 1 mg/kg
[16] = molecular target: T1, Muscarinic acetylcholine receptor M4 (Homo sapiens); assay: Partial agonist activity at human M4 receptor co-expressed with Galpha16 in CHO cells assessed as calcium mobilization at 30 nM after 60 mins by FLIPR assay; format: functional, cell-based
[17] = molecular target: T1, Muscarinic acetylcholine receptor M4 (Homo sapiens); assay: Agonist activity at M4 receptor (unknown origin) at 10 uM by calcium mobilization assay; format: functional
[18] = test system: Rattus norvegicus; assay: Potentiation of haloperidol-induced catalepsy in Sprague-Dawley rats at 30 mg/kg, sc administered 15 mins after haloperidol injection measured after 45 mins; format: ADME, organism-based; parameters: dose 30 mg/kg, route subcutaneous; details: in vivo, 0.75 h
[19] = test system: Cynomolgus monkey; assay: Cardiotoxicity in telemetered cynomolgus monkey assessed as prolongation of QRS duration at 1 to 3 mg/kg, sc measured after 1 to 4 hrs by telemetry method; format: toxicity, organism-based, Macaca fascicularis; parameters: route subcutaneous; details: in vivo
[20] = test system: Mus musculus; assay: Induction of salivation in ddY mouse at 10 to 30 mg/kg, sc measured for 30 mins after drug administration; format: organism-based; parameters: dose 10-30 mg/kg, route subcutaneous; details: in vivo, 0.5 h
[21] = test system: Cynomolgus monkey; assay: Cardiotoxicity in telemetered cynomolgus monkey assessed as increase in heart rate at 1 to 3 mg/kg, sc measured after 1 to 4 hrs by telemetry method; format: toxicity, organism-based, Macaca fascicularis; parameters: route subcutaneous; details: in vivo
[22] = test system: Cynomolgus monkey; assay: Cardiotoxicity in telemetered cynomolgus monkey assessed as prolongation of QTc interval at 1 to 3 mg/kg, sc measured after 1 to 4 hrs by telemetry method; format: toxicity, organism-based, Macaca fascicularis; parameters: route subcutaneous; details: in vivo
[23] = test system: Cynomolgus monkey; assay: Induction of drowsiness in sc dosed cynomolgus monkey; format: organism-based, Macaca fascicularis; details: in vivo
[24] = test system: Cynomolgus monkey; assay: Cardiotoxicity in telemetered cynomolgus monkey assessed as increase in mean blood pressure at 1 to 3 mg/kg, sc measured after 1 to 4 hrs by telemetry method; format: toxicity, organism-based, Macaca fascicularis; parameters: route subcutaneous; details: in vivo
[25] = test system: Cynomolgus monkey; assay: Induction of vomiting in sc dosed cynomolgus monkey; format: organism-based, Macaca fascicularis; details: in vivo
[26] = test system: Cynomolgus monkey; assay: Induction of miosis in sc dosed cynomolgus monkey; format: organism-based, Macaca fascicularis; details: in vivo
[27] = test system: Cynomolgus monkey; assay: Induction of salivation in sc dosed cynomolgus monkey; format: organism-based, Macaca fascicularis; details: in vivo

Sequence of Muscarinic acetylcholine receptor M3 (Homo sapiens) (P20309 whole entry, looked up): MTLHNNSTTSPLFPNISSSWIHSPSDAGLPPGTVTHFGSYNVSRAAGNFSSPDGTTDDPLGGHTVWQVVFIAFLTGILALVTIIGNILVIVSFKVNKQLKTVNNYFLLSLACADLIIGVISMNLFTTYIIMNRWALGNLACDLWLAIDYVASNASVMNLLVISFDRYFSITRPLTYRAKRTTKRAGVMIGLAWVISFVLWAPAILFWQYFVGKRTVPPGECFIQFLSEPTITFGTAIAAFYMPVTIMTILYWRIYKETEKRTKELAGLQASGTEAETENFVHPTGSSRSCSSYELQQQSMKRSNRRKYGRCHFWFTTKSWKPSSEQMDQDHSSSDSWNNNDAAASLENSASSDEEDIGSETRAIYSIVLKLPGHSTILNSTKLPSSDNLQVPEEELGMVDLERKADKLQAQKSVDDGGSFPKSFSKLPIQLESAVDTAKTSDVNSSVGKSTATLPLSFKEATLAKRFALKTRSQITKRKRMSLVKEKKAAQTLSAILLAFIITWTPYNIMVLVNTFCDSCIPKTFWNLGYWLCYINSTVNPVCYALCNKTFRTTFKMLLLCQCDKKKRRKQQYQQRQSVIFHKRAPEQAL
Sequence of Voltage-gated inwardly rectifying potassium channel KCNH2 (Q12809 whole entry): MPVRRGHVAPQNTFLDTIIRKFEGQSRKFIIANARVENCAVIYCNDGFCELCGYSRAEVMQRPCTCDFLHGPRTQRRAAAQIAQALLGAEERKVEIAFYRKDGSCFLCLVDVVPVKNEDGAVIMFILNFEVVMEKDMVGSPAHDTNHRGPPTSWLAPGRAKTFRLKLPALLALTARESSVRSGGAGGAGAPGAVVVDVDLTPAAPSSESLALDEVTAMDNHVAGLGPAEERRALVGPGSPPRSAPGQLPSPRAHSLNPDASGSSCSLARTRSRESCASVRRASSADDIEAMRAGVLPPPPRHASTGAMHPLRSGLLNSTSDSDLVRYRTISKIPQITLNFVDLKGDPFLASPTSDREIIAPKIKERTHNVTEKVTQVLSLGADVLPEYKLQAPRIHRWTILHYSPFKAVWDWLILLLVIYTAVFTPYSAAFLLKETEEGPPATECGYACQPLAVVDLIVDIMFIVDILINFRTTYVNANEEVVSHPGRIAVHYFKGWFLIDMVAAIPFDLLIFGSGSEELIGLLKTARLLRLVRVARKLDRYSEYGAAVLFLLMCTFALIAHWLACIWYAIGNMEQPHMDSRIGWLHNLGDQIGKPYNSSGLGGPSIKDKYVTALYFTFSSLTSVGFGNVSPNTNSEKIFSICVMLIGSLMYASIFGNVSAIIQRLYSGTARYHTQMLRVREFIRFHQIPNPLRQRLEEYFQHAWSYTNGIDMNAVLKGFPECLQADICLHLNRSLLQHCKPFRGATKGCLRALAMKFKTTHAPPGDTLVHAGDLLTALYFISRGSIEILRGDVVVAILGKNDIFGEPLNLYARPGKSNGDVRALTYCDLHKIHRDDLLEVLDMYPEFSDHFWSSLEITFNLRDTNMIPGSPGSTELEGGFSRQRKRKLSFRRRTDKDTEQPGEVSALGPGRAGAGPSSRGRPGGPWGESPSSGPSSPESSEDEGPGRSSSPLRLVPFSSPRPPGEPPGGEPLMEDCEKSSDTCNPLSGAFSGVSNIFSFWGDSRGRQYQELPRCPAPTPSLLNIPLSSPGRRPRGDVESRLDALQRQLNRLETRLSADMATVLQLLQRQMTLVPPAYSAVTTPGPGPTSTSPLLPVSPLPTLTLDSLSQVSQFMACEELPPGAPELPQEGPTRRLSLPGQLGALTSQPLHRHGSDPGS

Compound: CCOC(=O)N1CCC(CN2CC[C@H](N3C(=O)Cc4ccccc43)C2)(OC)CC1
- Intrinsic activity [1]: 13%

Compound: CCOC(=O)N1CCC(O)(CN2CC[C@H](N3C(=O)Cc4ccccc43)C2)CC1
- Activity [2]: 31%
- Activity [3]: 57%
- Activity [4]: 3%
- EC50 [5]: 320 nM
- Intrinsic activity [6]: 45%
- IC50 [7]: 3900 nM
- Activity [8]: 12%

Compound: CCOC(=O)N1CCC(CN2CCC(N3C(=O)Cc4ccccc43)CC2)CC1
- Activity [9]: 2%
- Activity [10]: 6%
- Activity [11]: 33%
- Activity [12]: 6%
- Activity [13]: 88%

Compound: CC[C@@H]1C(=O)OC[C@@H]1Cc1cncn1C [PILOCARPINE]
- Activity [14]: Toxic

Compound: CCOC(=O)N1CCC(CN2CCCC(N3C(=O)Cc4ccccc43)CC2)CC1 (stereo unspecified)
- Activity [9]: 2%
- Activity [10]: 3%
- Activity [11]: 4%
- Activity [12]: 4%
- Activity [13]: 7%

Compound: CCOC(=O)N1CCC(CN2CC[C@@H](N3C(=O)Cc4ccccc43)C2)CC1
- Activity [9]: 8%
- Activity [10]: 4%
- Activity [11]: 86%
- Activity [12]: 27%
- Activity [13]: 88%

Compound: CCOC(=O)N1CCC(CN2CC(N3C(=O)Cc4ccccc43)C2)CC1
- Activity [9]: 3%
- Activity [10]: 3%
- Activity [11]: 46%
- Activity [12]: 2%
- Activity [13]: 65%

Compound: CCOC(=O)N1CCC(C)(CN2CC[C@H](N3C(=O)Cc4ccccc43)C2)CC1
- Activity [2]: 2%
- Activity [3]: 49%
- Activity [4]: 4%
- EC50 [5]: 15 nM
- Intrinsic activity [6]: 65%
- IC50 [7]: 3500 nM
- Activity [8]: 3%

Compound: CO/N=C(\C#N)[C@H]1CN2CCC1CC2 [SABCOMELINE]
- inhibition [15]: Active
- EC50 [5]: 5.7 nM
- Intrinsic activity [6]: 28%

Compound: CCOC(=O)N1CCC(CN2CC[C@H](N3C(=O)Cc4ccccc43)C2)CC1
- Activity [9]: 7%
- Intrinsic activity [16]: 79%
- Activity [10]: 5%
- Activity [2]: 7%
- Activity [3]: 83%
- Activity [11]: 124%
- Activity [4]: 5%
- Activity [12]: 30%
- Activity [8]: 30%
- Activity [13]: 83%

Compound: CC(C)=CCN1CCC(N2C(=O)C(C)(C)c3ccccc32)CC1
- Activity [11]: 14%
- Activity [17]: 33%

Compound: CCCCCCOc1nsnc1C1=CCCN(C)C1.O=C(O)C(O)C(O)C(=O)O [XANOMELINE TARTRATE]
- Activity [9]: 85%
- Activity [18]: Toxic
- Activity [19]: Toxic
- Activity [20]: Toxic
- Activity [21]: Toxic
- Activity [10]: 33%
- Activity [11]: 83%
- Activity [22]: Toxic
- Activity [23]: Toxic
- Activity [12]: 34%
- Activity [24]: Toxic
- Activity [25]: Toxic
- Activity [26]: Toxic
- Activity [13]: 145%
- Activity [27]: Toxic

Source: ChEMBL document CHEMBL2331215, “Discovery of novel N-substituted oxindoles as selective m1 and m4 muscarinic acetylcholine receptors partial agonists” (ACS Med Chem Lett, 2013)
